One data set addresses T1, CYP2C19 (Homo sapiens, UniProt P33261).
T1 construct: (using 0.2 mg/mL liver microsomes for CYP2C19); tissue BioIVT IHG; host or cells: human liver microsomes
Description: Inhibitory effect on human liver microsome CYP450 enzyme. Type of data set: in vitro ADME. The following applies: human liver microsomes, substrate Mephenytoin. As for the experimental part:
(§1) In this experiment, the compound, liver microsomes and different CYP isoform enzyme substrates were incubated in a 37°C water bath, the amount of substrate metabolites generated was measured, and the inhibitory effect of the compound of the present disclosure on CYP enzyme was evaluated based on the IC50 value.
(§2) i. The compound was diluted with DMSO (Aladdin, catalog number: D103273-500ml) to concentrations of 0, 0.02, 0.06, 0.2, 0.6, 2 and 6 mM. The positive reference inhibitors for each CYP isoform and their concentrations are shown in Table 4 Table 4 Positive reference inhibitors for CYP isoform enzymes and their concentrations
(§3) ii. Phosphate buffer (sigma: V900050-500G) was used to formulate the substrate solution for each CYP isoform enzyme. Table 5 The substrate and the concentration thereof for CYP isoform enzyme
(§4) iii. Sample incubation. 1 µL of each concentration of the compound and positive reference inhibitor for CYP isoform enzyme were taken and placed into a 96-deep well plate (A-gen: P-1.0-RD-96-S), and 169 µL of 0.05 mg/mL liver microsomes (BioIVT, IHG) phosphate buffer solution (using 0.2 mg/mL liver microsomes for CYP2C19) was added. After uniform mixing, the plate was placed in a 37°C water bath (Shanghai Jinghong Experimental Equipment Co., Ltd., DK-500) with shaking for pre-incubation for 15 min. 10 µL of substrate (adding 1 µL of substrate for CYP3A4-Testosterone) and 20 µL of 10 mM NADPH phosphate buffer solution (MCE, HYF003/CS-4998) were added. After uniform mixing, the plate was incubated in a water bath with shaking for the following time: CYP1A2: 20 min, CYP2C9: 10 min, CYP2C19: 10 min, CYP2D6: 10 min, CYP3A4-Testosterone: 10 min, CYP3A4-Midazolam: 5 min. 400 µL of glacial acetonitrile/methanol (v/v, 1:1) containing an internal standard (500 nM tolbutamide, 5 nM terfenadine) was added to terminate the reaction. After centrifugation at 4000 rpm at 4°C for 40 min, the supernatant was taken and diluted with pure water according to the response of the metabolite of the substrate, and then UPLC-MS/MS (Sciex, Q-Trap 4500) was used for detection to obtain the peak area. The C18 chromatographic column was Kinetex 2.6u C18 100A (50 mm*3 mm).
(§5) The inhibitory effect of the compound on each P450 enzyme in human liver microsomes was calculated as the percentage of reduced metabolite formation compared with the non-inhibitory control (i.e. blank DMSO). The IC50 value of the compound for each P450 enzyme in human liver microsomes was calculated with the logarithm of the remaining activity and the inhibitor concentration using Graphpad Prism software. The calculation equation was as follows: Peak area ratio = compound peak area / internal standard peak area [formula] [formula]
(§6) In Graphpad Prism software, the IC50 value was calculated using the standard four-parameter curve fitting algorithm.

The target in the next data set is T2, CYP1A2 (Homo sapiens, UniProt P05177).
T2 construct: 0.05 mg/mL liver microsomes (BioIVT, IHG) phosphate buffer solution; tissue BioIVT IHG; host or cells: human liver microsomes
T2 sequence (P05177 1-516): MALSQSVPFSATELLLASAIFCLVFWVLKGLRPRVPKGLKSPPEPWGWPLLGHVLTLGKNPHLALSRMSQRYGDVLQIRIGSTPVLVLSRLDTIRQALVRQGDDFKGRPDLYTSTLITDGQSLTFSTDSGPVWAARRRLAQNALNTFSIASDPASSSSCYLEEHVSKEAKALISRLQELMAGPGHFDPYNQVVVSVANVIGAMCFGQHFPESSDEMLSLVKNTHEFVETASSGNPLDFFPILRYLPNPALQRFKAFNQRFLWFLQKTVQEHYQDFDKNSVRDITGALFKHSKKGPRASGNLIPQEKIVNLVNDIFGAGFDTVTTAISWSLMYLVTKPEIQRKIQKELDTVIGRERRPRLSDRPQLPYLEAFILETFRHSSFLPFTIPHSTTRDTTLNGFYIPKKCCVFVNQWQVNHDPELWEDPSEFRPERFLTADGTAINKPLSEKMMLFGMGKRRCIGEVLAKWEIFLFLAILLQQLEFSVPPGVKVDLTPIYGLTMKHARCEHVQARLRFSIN
Described as above. The note with it: human liver microsomes, substrate Phenacetin. The data set is classed as in vitro ADME. As to the method: as §1, §2, §3, §4, §5, §6
Background: Liver microsomes are vesicles of endoplasmic reticulum, rich in cytochrome P450 enzymes.

A further data set addresses T3, IRAK4 (Homo sapiens, UniProt Q9NWZ3).
T3 sequence (Q9NWZ3 1-460): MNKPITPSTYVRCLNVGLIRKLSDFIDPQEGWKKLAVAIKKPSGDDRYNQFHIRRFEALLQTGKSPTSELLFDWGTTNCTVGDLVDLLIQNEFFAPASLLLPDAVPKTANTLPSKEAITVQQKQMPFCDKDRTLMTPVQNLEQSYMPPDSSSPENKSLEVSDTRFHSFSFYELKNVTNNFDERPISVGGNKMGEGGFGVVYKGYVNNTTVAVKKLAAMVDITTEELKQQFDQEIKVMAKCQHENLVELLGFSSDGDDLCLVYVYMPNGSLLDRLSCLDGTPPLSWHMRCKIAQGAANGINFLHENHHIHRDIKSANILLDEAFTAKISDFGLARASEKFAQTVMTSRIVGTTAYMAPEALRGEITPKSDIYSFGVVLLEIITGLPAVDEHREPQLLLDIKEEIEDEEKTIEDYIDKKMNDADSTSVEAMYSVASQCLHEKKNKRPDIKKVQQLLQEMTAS
Description: Hibit fluorescence detection of proteolysis (IRAK4-HiBiT in HEK293T cells). Details: host or cells: HEK293T (ATCC). Type of data set: cell-based. In outline:
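Degradation read-out: luminescence from lytic HiBiT detection (15 min, room temperature) after 24 h compound exposure (37 °C, 5% CO2) of HEK293T cells transiently expressing IRAK4 fused to a HiBiT tag. Data fitted to a bell-shaped four-parameter model giving two EC50 values.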
(The HiBiT peptide binds its large partner to form an active luciferase.)

Where only a bound is given, the exact number is not on record here.

T1 sequence (P33261 whole entry): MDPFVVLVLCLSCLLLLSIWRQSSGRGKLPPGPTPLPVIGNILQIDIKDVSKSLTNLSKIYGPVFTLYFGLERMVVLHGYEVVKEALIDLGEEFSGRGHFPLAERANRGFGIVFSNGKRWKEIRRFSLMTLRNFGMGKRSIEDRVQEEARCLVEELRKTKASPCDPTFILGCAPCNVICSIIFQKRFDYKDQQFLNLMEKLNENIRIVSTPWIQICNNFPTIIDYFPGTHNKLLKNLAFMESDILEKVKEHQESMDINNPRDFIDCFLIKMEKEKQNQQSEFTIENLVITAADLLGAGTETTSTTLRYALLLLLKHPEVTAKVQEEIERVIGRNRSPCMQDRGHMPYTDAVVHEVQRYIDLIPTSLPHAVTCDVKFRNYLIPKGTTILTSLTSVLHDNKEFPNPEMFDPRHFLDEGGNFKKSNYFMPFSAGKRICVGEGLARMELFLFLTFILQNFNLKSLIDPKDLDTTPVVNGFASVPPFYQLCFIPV

The term IC50 denotes the concentration needed to halve the response being measured. The low end stands for greater potency in that assay, the high end for weaker potency in that assay. Consider `Cn1c(=O)n(C2CCC(=O)NC2=O)c2cccc(N3CCC(N4CCN(C[C@H]5CC[C@H](n6cc(-n7cc(-c8cnn9ccc(N%10CCC[C@H](O)C%10)nc89)nn7)c(C(F)F)n6)CC5)CC4)CC3)c21` (stereo partly shown) [Example 146], for which the half-inhibitory concentration (IC50) on CYP2C19 was 18.4 µM; at CYP1A2, over 30 µM. The compound also came in with a Dmax at IRAK4 (HEK-293T) of over 80%. Moreover, the DC50 at IRAK4 (IRAK4-HiBiT, HEK293T cells, 24 h) is under 0.0005 µM.

The values are drawn from patent EP4759807A1, “PROTEOLYSIS TARGETING CHIMERA COMPOUND FOR DEGRADING IRAK4 AND USE THEREOF” (Shenzhen Zhongge Biological Technology Co., Ltd., priority 2023, dated 2025).
